According to ChEMBL document CHEMBL1156829 (Proc Natl Acad Sci U S A, 2008):

What was measured:
[1] = system: Plasmodium falciparum; assay: NOVARTIS: Inhibition of Plasmodium falciparum 3D7 (drug-susceptible) proliferation in erythrocyte-based infection assay; assay type: functional, organism-based; conditions: Plasmodium falciparum, 3D7
[2] = system: Plasmodium falciparum; assay: NOVARTIS: Inhibition of Plasmodium falciparum W2 (drug-resistant) proliferation in erythrocyte-based infection assay; assay type: functional, organism-based; conditions: Plasmodium falciparum, W2; read-out: EC50
[3] = NOVARTIS: Cytotoxicity against human hepatocellular carcinoma cell line (Huh7); assay type: toxicity, cell-based, Huh-7; conditions: Huh7 cells (hepatocellular carcinoma cell line)

CC(=O)NCCc1ccc(O)cc1
EC50 [1]: > 1670 nM | EC50 [2]: < 13.7 nM | CC50 [3]: > 10000 nM

CCSC(Cl)=C(NC(=O)c1ccccc1)[P+](c1ccccc1)(c1ccccc1)c1ccccc1.[O-][Cl+3]([O-])([O-])[O-]
EC50 [1]: 123 nM | EC50 [2]: 45.5 nM | CC50 [3]: 32200 nM

CCN(CC)CCCC(C)N=c1cc(C=Cc2ccccc2Cl)[nH]c2cc(Cl)ccc12 (configuration not stated)
EC50 [1]: 50.7 nM | EC50 [2]: 25.7 nM | CC50 [3]: 18800 nM

CCOc1cc2c(cc1OCC)C(c1cc(OC)c(O)cc1Cl)NCC2 (configuration not stated)
EC50 [1]: 362 nM | EC50 [2]: 95.8 nM | CC50 [3]: 74200 nM

CC=Cc1n(C)c2ccccc2[n+]1C
EC50 [1]: 613 nM | EC50 [2]: 129 nM | CC50 [3]: > 100000 nM

COc1ccc(C=C2SC(=N)N(c3ccccc3OC)C2=O)cc1
EC50 [1]: 163 nM | EC50 [2]: 87.1 nM | CC50 [3]: 62900 nM

Oc1c(C(Nc2ccccn2)c2cccc(Cl)c2Cl)ccc2cccnc12 (configuration not stated)
EC50 [1]: 174 nM | EC50 [2]: 132 nM | CC50 [3]: > 100000 nM

N=c1c2c(n(Cc3ccc([N+](=O)[O-])cc3)c3c1CCC3)CCCC2
EC50 [1]: 121 nM | EC50 [2]: 130 nM | CC50 [3]: > 100000 nM

FC(F)(F)c1cccc(NC(=S)N2CCCC2c2ccccc2C(F)(F)F)c1 (configuration not stated)
EC50 [1]: 214 nM | EC50 [2]: < 13 nM | CC50 [3]: > 10000 nM

Cc1ccc(CSCc2ccc(C(=O)NC3CC3)o2)cc1
EC50 [1]: 418 nM | EC50 [2]: 133 nM | CC50 [3]: > 100000 nM

CC(NCc1ccccc1)c1cc(Cl)ccc1O (configuration not stated)
EC50 [1]: 592 nM | EC50 [2]: 97.2 nM | CC50 [3]: 73300 nM

CCCCC(CC)C(=O)NCCCCNc1ccnc2cc(Cl)ccc12 (configuration not stated)
EC50 [1]: 297 nM | EC50 [2]: < 13.4 nM | CC50 [3]: > 10100 nM

CC(=O)NC1=NN(C(C)=O)C(C)(c2ccc([N+](=O)[O-])cc2)S1 (configuration not stated)
EC50 [1]: 497 nM | EC50 [2]: 132 nM | CC50 [3]: > 100000 nM

CCOc1ccc(C2c3[nH]c4ccccc4c3CCN2C(=O)c2cc3cc(Br)ccc3o2)cc1 (configuration not stated)
EC50 [1]: 316 nM | EC50 [2]: 135 nM | CC50 [3]: > 100000 nM

CCOC(=O)C1=C(C)NC2=C(C(=O)C(C(=O)OCC)C(c3ccc(OC)cc3)C2)C1c1ccc([N+](=O)[O-])cc1 (configuration not stated)
EC50 [1]: 685 nM | EC50 [2]: 134 nM | CC50 [3]: > 100000 nM

C[n+]1oc(C=Cc2ccccc2)cc1C=Cc1ccccc1
EC50 [1]: 68.8 nM | EC50 [2]: 28.8 nM | CC50 [3]: 21200 nM

CN(CCCNc1ccnc2cc(Cl)ccc12)C(=O)COCc1ccccc1
EC50 [1]: 110 nM | EC50 [2]: < 13.5 nM | CC50 [3]: > 10000 nM

O=C(NCCCCNc1ccnc2cc(Cl)ccc12)c1cccc(C(F)(F)F)c1
EC50 [1]: 171 nM | EC50 [2]: < 13.8 nM | CC50 [3]: > 10000 nM

O=C1C(N2CCCCC2)=C(N2CCCCC2)C(=O)c2ccccc21
EC50 [1]: 137 nM | EC50 [2]: 34.1 nM | CC50 [3]: 24900 nM

CCOc1cc(C2CC(=O)NC3=C2C(=O)CC(C)(C)C3)ccc1OC(C)C (configuration not stated)
EC50 [1]: 284 nM | EC50 [2]: 136 nM | CC50 [3]: > 100000 nM

CC(C)(C)NC(=O)c1cn(C2CCCCC2)cc(C(=O)NC2CCN(Cc3ccccc3)C2)c1=O (configuration not stated)
EC50 [1]: 188 nM | EC50 [2]: < 12.8 nM | CC50 [3]: > 10000 nM

CC(C)(C)c1nn(-c2ccc(Cl)cc2)c2[nH]c(=O)c(CNCc3ccc(Cl)cc3)cc12
EC50 [1]: 351 nM | EC50 [2]: 129 nM | CC50 [3]: > 100000 nM

CCN1CCCC(Nc2ccnc3cc4ccccc4cc23)C1 (configuration not stated)
EC50 [1]: 8.24 nM | EC50 [2]: 4.81 nM | CC50 [3]: 3750 nM

Cc1c(C(=O)NCCN2CCCC2)cnn1-c1ncc2c(n1)-c1ccccc1SC2
EC50 [1]: 525 nM | EC50 [2]: < 14.3 nM | CC50 [3]: > 10000 nM

CCc1cccc(NC(=O)N2CCN(C(=O)c3nc(-c4ccccc4)nc(C)c3C(=O)OC(C)C)CC2C)c1 (configuration not stated)
EC50 [1]: 719 nM | EC50 [2]: < 14.1 nM | CC50 [3]: > 10000 nM

C[n+]1c(/C=C\c2ccc(F)cc2)ccc2ccccc21
EC50 [1]: 274 nM | EC50 [2]: 14.2 nM | CC50 [3]: > 10000 nM

Fc1ccc(C2(CCCSc3nnc4c(n3)[nH]c3ccccc34)OCCO2)cc1
EC50 [1]: 400 nM | EC50 [2]: 141 nM | CC50 [3]: > 100000 nM

CC(c1nc2ccc(Cl)cc2c(=O)n1C)N1CCN(S(=O)(=O)c2cccc3ccccc23)CC1 (configuration not stated)
EC50 [1]: 147 nM | EC50 [2]: 140 nM | CC50 [3]: > 100000 nM

O=C1N(Cc2cc3ccccc3s2)CC2CN(Cc3ccc(F)c(F)c3)CCN12 (configuration not stated)
EC50 [1]: 239 nM | EC50 [2]: < 13.9 nM | CC50 [3]: > 10000 nM

COc1ccccc1N1CCN(Cc2cc(C)c(C)cc2O)CC1
EC50 [1]: 383 nM | EC50 [2]: 80.5 nM | CC50 [3]: 58000 nM

COC(=O)c1ccc(N(C(=O)Cc2c[nH]c3ccccc23)C(C(=O)NC2CCCCC2)c2cccnc2)cc1 (configuration not stated)
EC50 [1]: 232 nM | EC50 [2]: 132 nM | CC50 [3]: > 100000 nM

C=C[C@H]1CN2CC[C@H]1C[C@H]2[C@H](OC(=O)c1cccc([N+](=O)[O-])c1)c1ccnc2ccccc12
EC50 [1]: 396 nM | EC50 [2]: < 14.5 nM | CC50 [3]: > 10000 nM

CN(C)c1ccc(NC(=O)C2C3C=CC(O3)C2C(=O)O)cc1 (configuration not stated)
EC50 [1]: 120 nM | EC50 [2]: 47.7 nM | CC50 [3]: 32800 nM

COc1ccc(-c2nc(SCCCCC(=O)N3CCN(C(c4ccccc4)c4ccccc4)CC3)[nH]c2-c2ccc(OC)cc2)cc1
EC50 [1]: > 1180 nM | EC50 [2]: < 13.4 nM | CC50 [3]: > 10000 nM

c1ccc(C2=NN(c3ccccc3)N(c3ccccc3)N2)cc1
EC50 [1]: 137 nM | EC50 [2]: 129 nM | CC50 [3]: > 100000 nM

O=C(C(Cc1ccc(O)cc1)c1ccccc1)N1CCC(n2c(Cc3ccc(F)cc3)nc3cccnc32)CC1 (configuration not stated)
EC50 [1]: 351 nM | EC50 [2]: 138 nM | CC50 [3]: > 100000 nM

Cc1cccc(N(C)c2nc3ccccc3c3nnc(C)n23)c1
EC50 [1]: 119 nM | EC50 [2]: 134 nM | CC50 [3]: > 100000 nM

COCCNC(=O)[C@@H]1C[C@@H](Sc2nc3ccccc3[nH]2)CN1Cc1ccc2ccccc2c1
EC50 [1]: 638 nM | EC50 [2]: 135 nM | CC50 [3]: > 100000 nM

COC(=O)C1C(=O)C2=C(CC1C)NC(=O)CC2c1ccc(Cl)cc1Cl (configuration not stated)
EC50 [1]: 991 nM | EC50 [2]: 128 nM | CC50 [3]: > 100000 nM

C=CC1CN2CCC1CC2[C@@H](OC(=O)c1ccc(C(C)(C)C)cc1)c1ccnc2ccc(OC)cc12 (some centres not stated)
EC50 [1]: 26 nM | EC50 [2]: 103 nM | CC50 [3]: 72400 nM

COc1cc2c(-c3cc(Br)ccc3O)nc3c(c(Cc4ccccc4)nn3-c3ccccc3)c2cc1OC
EC50 [1]: 146 nM | EC50 [2]: 145 nM | CC50 [3]: > 100000 nM

O=C(Nc1cc(C(=O)N2CCC(Cc3ccccc3)CC2)ccc1N1CC2CC(C1)c1cccc(=O)n1C2)c1cccs1 (configuration not stated)
EC50 [1]: 74.4 nM | EC50 [2]: 64.4 nM | CC50 [3]: 49700 nM

COc1ccc(C=Cc2ccc3ccccc3[n+]2C)cc1OC
EC50 [1]: 441 nM | EC50 [2]: 138 nM | CC50 [3]: > 100000 nM

Oc1ccccc1Nc1nc(-c2ccccc2O)nc2ccccc12
EC50 [1]: 577 nM | EC50 [2]: 136 nM | CC50 [3]: > 100000 nM

O=C(Nc1ccc(C2=NCCN2)cc1)c1ccc(NC(=O)c2ccc(C3=NCCN3)cc2)cc1
EC50 [1]: 81.9 nM | EC50 [2]: 13.5 nM | CC50 [3]: > 10000 nM

Cc1ccc(-n2c(-c3ccccc3)cc(C=NNC(=O)c3cccc(O)c3)c2-c2ccccc2)cc1
EC50 [1]: 150 nM | EC50 [2]: 139 nM | CC50 [3]: > 100000 nM

Cc1cc(Cl)c(S(=O)(=O)N2CCCC2)cc1OCC(=O)NC1CCCCC1
EC50 [1]: 95.6 nM | EC50 [2]: 141 nM | CC50 [3]: > 100000 nM

CSc1cccc(NC(=O)C2C3C=CC4(O3)C2C(=O)N(C2CC2)C4C(=O)NC2CCCCC2)c1 (configuration not stated)
EC50 [1]: 1750 nM | EC50 [2]: < 14.5 nM | CC50 [3]: > 10000 nM

CCN(CC)CCN1C(=O)c2ccccc2NC1c1ccc(Br)cc1 (configuration not stated)
EC50 [1]: 218 nM | EC50 [2]: 67.1 nM | CC50 [3]: 47800 nM

CCOC(=O)c1cnc2c3c(ccc2c1O)CCCC3
EC50 [1]: 133 nM | EC50 [2]: 137 nM | CC50 [3]: > 100000 nM

CC(C)CN1C(=O)c2ccccc2C(C(=O)Nc2ccc(F)cc2F)C1c1cccs1 (configuration not stated)
EC50 [1]: 219 nM | EC50 [2]: 129 nM | CC50 [3]: > 100000 nM

CCc1nc2nc(C)cc(Nc3ccc(C)c(F)c3)n2n1
EC50 [1]: 248 nM | EC50 [2]: 140 nM | CC50 [3]: > 100000 nM

O=C(CCc1ccccc1)NCCCCNc1ccnc2cc(Cl)ccc12
EC50 [1]: 142 nM | EC50 [2]: < 13.8 nM | CC50 [3]: > 10000 nM

CN(C)c1cc[n+](CC(=O)c2ccc(Cl)cc2)cc1
EC50 [1]: 168 nM | EC50 [2]: 132 nM | CC50 [3]: > 100000 nM
